Inconclusive results are not listed.
System: nude mice, HT29 intrarenal xenograft, tumor weight T/C
Experiment: NCI In Vivo Anticancer Drug Screen. Data for tumor model HT29;CX-1 Human Adenocarcinoma (MER+) (intrarenal inoculation) in NU/NU Swiss (nude) mice
Settings: endpoint: mean tumor weight change, higher = larger tumour
Experimental: The antitumor activity of compounds was measured in mice bearing transplantable tumors. Survival or tumor size were measured and the results are expressed as the measurement made in the treated group (T) divided by the measurement made in the vehicle treated control group (C). The tumor model used in this assay is HT29;CX-1 Human Adenocarcinoma (MER+) (intrarenal inoculation) in NU/NU Swiss (nude) mice

[1] = dose: 300.0 mg/kg/injection, schedule: Q04DX004 (sc), vehicle: Klucel (hydroxypropylcellulose) (HPC)
[2] = dose: 600.0 mg/kg/injection, schedule: Q04DX004 (sc), vehicle: Klucel (hydroxypropylcellulose) (HPC)
[3] = dose: 1200.0 mg/kg/injection, schedule: Q04DX004 (sc), vehicle: Klucel (hydroxypropylcellulose) (HPC)
[4] = dose: 75.0 mg/kg/injection, schedule: Q04DX004 (sc), vehicle: Klucel (hydroxypropylcellulose) (HPC)
[5] = dose: 37.5 mg/kg/injection, schedule: Q04DX004 (sc), vehicle: saline
[6] = dose: 75.0 mg/kg/injection, schedule: Q04DX004 (sc), vehicle: saline

For `CNc1nc(N(C)C)nc(N(C)C)n1`, the T/C (dose: 12.5 mg/kg/injection, schedule: Q04DX004 (sc), vehicle: water) was 54 % of control, the T/C (dose: 15.0 mg/kg/injection, schedule: Q01DX010 (sc), vehicle: water) was 89 % of control and the T/C (dose: 25.0 mg/kg/injection, schedule: Q04DX004 (sc), vehicle: water) was 75 % of control. For the same compound, the T/C (dose: 50.0 mg/kg/injection, schedule: Q04DX004 (sc), vehicle: water) was 51 % of control and the T/C (dose: 100.0 mg/kg/injection, schedule: Q04DX004 (sc), vehicle: water) was 51 % of control.

In the case of `CCN1/C(=C/C=C/C=C/c2sc3ccccc3[n+]2CC)Sc2ccccc21`, the T/C (dose: 0.38 mg/kg/injection, schedule: Q04DX004 (sc), vehicle: suspension in saline) is reported as 77 % of control, the T/C (dose: 0.75 mg/kg/injection, schedule: Q04DX004 (sc), vehicle: suspension in saline) is reported as 72 % of control and the T/C (dose: 1.5 mg/kg/injection, schedule: Q04DX004 (sc), vehicle: suspension in saline) is reported as 104 % of control. The T/C (dose: 3.0 mg/kg/injection, schedule: Q04DX004 (sc), vehicle: suspension in saline) was 89 % of control.

With `O=C1NC(O)c2ccccc2O1` (configuration not stated) the T/C (dose: 100.0 mg/kg/injection, schedule: Q04DX004 (sc), vehicle: suspension in saline) was 68 % of control, the T/C (dose: 200.0 mg/kg/injection, schedule: Q04DX004 (sc), vehicle: suspension in saline) was 115 % of control and the T/C (dose: 400.0 mg/kg/injection, schedule: Q04DX004 (sc), vehicle: suspension in saline) was 50 % of control. For the same compound, the T/C (dose: 800.0 mg/kg/injection, schedule: Q04DX004 (sc), vehicle: suspension in saline) was 55 % of control.

With `CCc1ccccc1N1CCN(C(=O)c2cc(OC)c(OC)c(OC)c2)CC1` the T/C [1] was 57 % of control, the T/C [2] was 120 % of control and the T/C [3] was 84 % of control.

With `CN(C)c1ccc2c(N(C)C)cc(N(C)C)nc2c1` the T/C [4] was 97 % of control.

In the case of `COC1/C=C/C=C(/C)Cc2cc(O)c(Cl)c(c2)N(C)C(=O)CC(OC(=O)C(C)C)C2(C)OC2C(C)C2CC1(O)NC(=O)O2` (configuration not stated), the T/C (dose: 0.5 mg/kg/injection, schedule: Q04DX004 (sc), vehicle: saline + alcohol) is reported as 123 % of control, the T/C (dose: 1.0 mg/kg/injection, schedule: Q04DX004 (sc), vehicle: saline + alcohol) is reported as 78 % of control and the T/C (dose: 2.0 mg/kg/injection, schedule: Q04DX004 (sc), vehicle: saline + alcohol) is reported as 78 % of control. The T/C (dose: 4.0 mg/kg/injection, schedule: Q04DX004 (sc), vehicle: saline + alcohol) was 65 % of control.

For `C(=N/NC1=NCCN1)/c1c2ccccc2c(/C=N\NC2=NCCN2)c2ccccc12`, the T/C (dose: 18.75 mg/kg/injection, schedule: Q04DX004 (sc), vehicle: saline) was 83 % of control, the T/C [5] was 105 % of control and the T/C [6] was 75 % of control.

`O=NN(CCCl)C(=O)NC1CCCCC1` was tested, and the T/C (dose: 8.0 mg/kg/injection, schedule: Q01DX010 (sc), vehicle: saline with Tween-80) was 85 % of control, the T/C (dose: 8.0 mg/kg/injection, schedule: Q04DX004 (sc), vehicle: carboxymethylcellulose (CMC)) was 99 % of control and the T/C (dose: 16.0 mg/kg/injection, schedule: Q01DX010 (sc), vehicle: saline with Tween-80) was 42 % of control. For the same compound, the T/C (dose: 16.0 mg/kg/injection, schedule: Q04DX004 (sc), vehicle: carboxymethylcellulose (CMC)) was 86 % of control, the T/C (dose: 25.0 mg/kg/injection, schedule: Q04DX004 (sc), vehicle: Klucel (hydroxypropylcellulose) (HPC)) was 63 % of control and the T/C (dose: 32.0 mg/kg/injection, schedule: Q01DX010 (sc), vehicle: saline with Tween-80) was 77 % of control. The T/C (dose: 32.0 mg/kg/injection, schedule: Q04DX004 (sc), vehicle: carboxymethylcellulose (CMC)) was 89 % of control, the T/C (dose: 50.0 mg/kg/injection, schedule: Q04DX004 (sc), vehicle: Klucel (hydroxypropylcellulose) (HPC)) was 116 % of control and the T/C (dose: 64.0 mg/kg/injection, schedule: Q04DX004 (sc), vehicle: carboxymethylcellulose (CMC)) was 101 % of control.

In the case of `Nc1nc(=O)n(C2OC(CO)C(O)C2O)cc1F` (configuration not stated), the T/C (dose: 150.0 mg/kg/injection, schedule: Q04DX004 (ip), vehicle: saline) is reported as 122 % of control, the T/C (dose: 300.0 mg/kg/injection, schedule: Q04DX004 (ip), vehicle: saline) is reported as 56 % of control and the T/C (dose: 600.0 mg/kg/injection, schedule: Q04DX004 (ip), vehicle: saline) is reported as 83 % of control. The T/C (dose: 600.0 mg/kg/injection, schedule: Q04DX004 (sc), vehicle: saline) was 26 % of control, the T/C (dose: 1200.0 mg/kg/injection, schedule: Q04DX004 (ip), vehicle: saline) was 42 % of control and the T/C (dose: 1200.0 mg/kg/injection, schedule: Q04DX004 (sc), vehicle: saline) was 11 % of control.

For `NC(CCl)=NCC12CC3CC(CC(C3)C1)C2`, the T/C (dose: 37.5 mg/kg/injection, schedule: Q04DX004 (sc), vehicle: Klucel (hydroxypropylcellulose) (HPC)) was 97 % of control and the T/C [4] was 114 % of control.

For `C=C[Si]12OCCN(CCO1)CCO2`, the T/C [1] was 92 % of control, the T/C [2] was 93 % of control and the T/C [3] was 110 % of control. The T/C (dose: 2400.0 mg/kg/injection, schedule: Q04DX004 (sc), vehicle: Klucel (hydroxypropylcellulose) (HPC)) was 71 % of control.

For `COc1cc([C@@H]2c3cc4c(c(O)c3C[C@H]3COC(=O)[C@@H]32)OCO4)cc(OC)c1O`, the T/C (dose: 1.0 mg/kg/injection, schedule: Q01DX010 (sc), vehicle: saline) was 92 % of control, the T/C (dose: 2.0 mg/kg/injection, schedule: Q01DX010 (sc), vehicle: saline) was 75 % of control and the T/C (dose: 4.0 mg/kg/injection, schedule: Q01DX010 (sc), vehicle: saline) was 106 % of control.

In the case of `C[C@@H](CN1CC(=O)NC(=O)C1)N1CC(=O)NC(=O)C1`, the T/C (dose: 100.0 mg/kg/injection, schedule: Q01DX010 (sc), vehicle: saline with Tween-80) is reported as 232 % of control and the T/C (dose: 200.0 mg/kg/injection, schedule: Q01DX010 (sc), vehicle: saline with Tween-80) is reported as 46 % of control.

In the case of `C[C@]12C=CC(=O)C=C1CC[C@@H]1[C@@H]2C(=O)C[C@@]2(C)[C@H]1CC[C@]2(O)C(=O)CO`, the T/C (dose: 150.0 mg/kg/injection, schedule: Q04DX004 (sc), vehicle: Klucel (hydroxypropylcellulose) (HPC)) is reported as 18 % of control, the T/C [2] is reported as 27 % of control and the T/C [3] is reported as 19 % of control.

With `OCCN1CCN(CC/C=C2/c3ccccc3Sc3ccc(C(F)(F)F)cc32)CC1` the T/C (dose: 5.0 mg/kg/injection, schedule: Q01DX010 (sc), vehicle: saline) was 80 % of control, the T/C (dose: 10.0 mg/kg/injection, schedule: Q01DX010 (sc), vehicle: saline) was 49 % of control and the T/C (dose: 20.0 mg/kg/injection, schedule: Q01DX010 (sc), vehicle: saline) was 67 % of control. The T/C (dose: 40.0 mg/kg/injection, schedule: Q01DX010 (sc), vehicle: saline) was 42 % of control.

For `COc1ccc(OC)c(Cc2cnc3nc(N)nc(N)c3c2C)c1`, the T/C (dose: 150.0 mg/kg/injection, schedule: Q04DX004 (sc), vehicle: water) was 116 % of control and the T/C (dose: 300.0 mg/kg/injection, schedule: Q04DX004 (sc), vehicle: water) was 54 % of control.

`Cc1cc2c(C(C)C)c(O)c(O)c(C=O)c2c(O)c1-c1c(C)cc2c(C(C)C)c(O)c(O)c(C=O)c2c1O` was tested, and the T/C (dose: 37.5 mg/kg/injection, schedule: Q04DX004 (sc), vehicle: saline with Tween-80) was 100 % of control, the T/C (dose: 75.0 mg/kg/injection, schedule: Q04DX004 (sc), vehicle: saline with Tween-80) was 71 % of control and the T/C (dose: 150.0 mg/kg/injection, schedule: Q04DX004 (sc), vehicle: saline with Tween-80) was 64 % of control. The T/C (dose: 300.0 mg/kg/injection, schedule: Q04DX004 (sc), vehicle: saline with Tween-80) was 46 % of control.

`COc1ccc(C(=O)C(CN(C)C)CN(C)C)cc1` was tested, and the T/C (dose: 12.5 mg/kg/injection, schedule: Q04DX004 (sc), vehicle: saline) was 100 % of control and the T/C (dose: 25.0 mg/kg/injection, schedule: Q04DX004 (sc), vehicle: saline) was 38 % of control.

For `CCOC(=O)CNC(=O)Sc1ccc(C(C)(C)C)cc1`, the T/C (dose: 300.0 mg/kg/injection, schedule: Q04DX003 (sc), vehicle: Klucel (hydroxypropylcellulose) (HPC)) was 98 % of control, the T/C (dose: 600.0 mg/kg/injection, schedule: Q04DX003 (sc), vehicle: Klucel (hydroxypropylcellulose) (HPC)) was 113 % of control and the T/C (dose: 1200.0 mg/kg/injection, schedule: Q04DX003 (sc), vehicle: Klucel (hydroxypropylcellulose) (HPC)) was 44 % of control. For the same compound, the T/C (dose: 2400.0 mg/kg/injection, schedule: Q04DX003 (sc), vehicle: Klucel (hydroxypropylcellulose) (HPC)) was 103 % of control.

`CCCCCCCCCCCCCCCCP(=O)(OCCOCCCCCC)OCCOCCCCCC` was tested, and the T/C [5] was 206 % of control, the T/C [6] was 93 % of control and the T/C (dose: 300.0 mg/kg/injection, schedule: Q04DX004 (sc), vehicle: saline) was 178 % of control.
